Measurements as given in patent US20090274739A1, “METHODS AND COMPOSITIONS FOR TREATING NEOINTIMAL HYPERPLASIA” (THE TRUSTEES OF COLUMBIA UNIVERSITY IN THE CITY OF NEW YORK, priority 2006, published 2009).
“Also recorded” adds a separate entry of the source.

How the values were obtained:
[1] = tested on: murine femoral artery wire injury model (neointimal hyperplasia); experiment: Femoral artery wire injury model, morphometry of neointimal formation; type: in vivo, mouse; parameters: Lumen / Media / Intima / TVA (total vessel area): unit not given here
Excerpt: Animal Models and Drug Treatments. Wild type C57BL/6J background mice and mice deficient for leptin (C57BL/6J-Lepob; ob/ob) or the leptin receptor (C57BL/6J-m+/+Lepdb; db/db) were purchased from Charles Jackson Laboratories, Maine. Mice were obtained at ages 6-8 weeks old and average weight 15 g. Animals were fed standard rodent chow and tap water ad libitum. Procedures and animal care were approved by the Institutional Animal Care and Use Committee. Mice were subjected to femoral artery wire injury or sham injury described below 24 hr prior to starting pharmacological treatments. Sirolimus was administered by intraperitoneal injection once per day for 14 days as a suspension in 0.2% sodium carboxymethyl cellulose and 0.25% polysorbate-80; duplicate experiments were accomplished with 0.5% DMSO. Leptin or LY294002 was administered by intraperitoneal injection once per day for 14 days as a suspension in PBS. Plasma leptin levels were measured at baseline, 3, 6, and 10 hr after leptin injection using an ELISA assay (R&D). Leptin plus the vehicle used for both sirolimus and LY294002 was used as the control group for the treatment groups with sirolimus and LY294002. After the 2-week treatment, animals were processed for femoral artery morphometry.
Femoral Artery Injury Model. Endoluminal injury of bilateral femoral arteries was performed according to the method of Roque et al. with minor modification 27. […] Briefly, to denude and dilate femoral arteries, a 0.014″ angioplasty guidewire (Guidant) was passed endoluminally 3 times to the level of the aortic bifurcation. A sham protocol was performed where the arteries underwent dissection, clamping, and ligature without passage of the guidewire.
Computer-aided quantitative morphometry to measure luminal, medial, intimal, and vessel areas were performed as previously described 27 with minor modification. Mice were euthanized via CO2 asphyxiation prior to en bloc excision of hind limbs. Briefly, multiple segments of the common femoral artery at the level of injury were fixed in 10% Zinc Formalin, embedded in paraffin, sectioned at […] thickness, and subjected to Elastic-Van Gieson staining at a Columbia University Core Histology facility. In many cases, arteries underwent immunohistochemical staining for smooth muscle a-actin to highlight the media and neointima. Photomicrographs were captured on Adobe Photoshop 7.0 and transferred to Scion Image software for quantitative analysis. Specimens were analyzed by two independent operators blinded to the treatment groups. Microsoft Excel software was used to calculate the RNI values from I/M ratios in the absence and presence of pharmacological inhibitors, as detailed in the text.
Surgical Procedures: The mouse femoral artery wire injury model of was used with minor modifications (Roque M, et al., Arterioscler Thromb Vasc Biol, 2000, 20(2):335-42). Briefly, forty-two male mice were studied. Endoluminal injury to the common femoral artery was produced by either 3 passages of a 0.014″ diameter angioplasty guidewire (Guidant, Santa Clara, Calif.). […] While being viewed under a surgical microscope, a groin incision was made and the femoral artery was isolated and temporarily clamped distal to the inguinal ligament. An arteriotomy was performed and the guidewire was passed 3 times to the level of the aortic bifurcation. The artery was then ligated proximal to the arteriotomy. A sham protocol was carried out on the contralateral side where the arteries underwent dissection, temporary clamping, and ligature, without passage of the wire. The formation of the neointima was confirmed in this model as being comprised mainly of VSMCs through immunohistochemical staining of representative sections for α-smooth muscle actin via a commercial kit (Sigma).
For all treatment protocols, rapamycin was administered by intraperitoneal injection once per day, for 14 days, as a suspension in 0.2% sodium carboxymethyl cellulose and 0.25% polysorbate-80. […]

[2] = tested on: cultured porcine coronary arteries; settings: LY294002 10 μM; cited from earlier work
[3] = tested on: primary murine aortic vascular smooth muscle cells (VSMC); experiment: VSMC proliferation assay (Coulter counter / MTS-based); type: cell-based, mouse
Experimental: The methods used in the above experiments were as follows: Cell Culture and VSMC Proliferation Assays. Primary VSMC were isolated from aortic explants of wildtype, ob/ob, or db/db mice in the method of Roque et al. 30. VSMC were routinely cultured in Dulbecco's Modified Eagle's Medium (DMEM) containing either 4500 or 1250 mg/L glucose supplemented with 20% FBS at 37° C. in a 5% CO2 incubator. […] Cells were plated at 200,000 cells/ well of a 6 well dish and subsequently serum starved for 72 hr in DMEM media supplemented with 0.1 % FBS. Leptin dissolved in PBS was added directly to serum-free media at concentrations of 1, 10, or 100 ng/ml with […] LY294002 or U0126, and cells were grown for another 72 hr before harvesting. VSMC proliferation was measured by counting samples using a Coulter counter or using the Cell Titre 96 Aqueous One Solution Cell Proliferation Assay kit (Promega). Cell viability was assessed by Trypan Blue staining.
Proliferation of VSMCs: VSMC proliferation was measured by counting triplicate samples using a Coulter counter or using the CellTitier 96 Aqueous One Solution Cell Proliferation Assay (Promega, Madison, Wis.) kit per manufacturer's instructions. Cell viability was assessed via staining with Trypan Blue.
Murine VSMCs (2×10^4 cells/well) were incubated in a 6-well tissue culture plate for 72 hours in DMEM containing 0.1% FBS with or without insulin (10 or 100 nmol/L) and with 0, 1, 10, or 100 nmol/L rapamycin. Triplicate samples were counted using a Coulter counter and were normalized as percentage of the control group. Cell viability was checked via Trypan blue staining.
Murine VSMCs, seeded 2×10^4 cells/well in a 6-well plate, were starved for 72 hrs in DMEM with 0.1% FBS. Rapamycin, leptin, or insulin in different concentrations indicated in the figure were incubated with VSMCs in DMEM with 0.1% of FBS for 72 hrs. Triplicate samples were counted via a Coulter counter. Cell viability was checked via Trypan blue staining. […] In panel C, VSMCs were exposed to U0126, a specific MEK1/2 inhibitor, or LY294002, a specific PI3K inhibitor.
Primary VSMC were isolated from aortic explants of WT, ob/ob, or db/db mice (46). VSMC proliferation was determined using the Cell Titre Aqueous One Solution Proliferation Assay (Promega, Madison, Wis.). Migration to PDGF-BB was assessed in a modified Boyden chamber assay (47).

[4] = tested on: primary murine aortic vascular smooth muscle cells (VSMC); experiment: as above; type: cell-based, mouse; settings: Example 5; 6 nM leptin; inhibitor 10 μM
[5] = tested on: Akt Thr-308 phosphorylation; experiment: Akt Thr-308 phosphorylation in descending aorta homogenates after i.p. treatment; type: in vivo; settings: Mus musculus, ip, 168 h; LY294002 1.2 mg/kg/day i.p., 7 days; read-out: inhibition of basal Thr-308 phosphorylation of Akt in descending aortas
Excerpt: Animals were processed for femoral artery morphometry after the 14-day drug treatments. For assessing LY294002 efficacy in vivo, descending aortas from mice treated with LY294002 or vehicle were harvested after 7 days of treatment; 3-4 aortas were pooled for immunoblot assessment of Akt phosphorylation.

[6] = wire injury + leptin 0.4 mg/kg, LY 1.2 mg/kg daily i.p. 14 days, mean ± SD

O=c1cc(N2CCOCC2)oc2c(-c3ccccc3)cccc12 [LY294002, 2-(4-morpholinyl)-8-phenyl-4H-1-benzopyran-4-one]
inhibition of leptin-induced neointimal formation ([1]; LY294002 1.2 mg/kg/d alone, leptin 0.4 mg/kg/d, 14 days): partially inhibited; also recorded: not the LY294002 alone group revealed a complete inhibition | relative neointimal inhibition (RNI) ([1]; LY294002 1.2 mg/kg, leptin 0.4 mg/kg): 0.70 | I/M (intima:media ratio) [1, 6]: 0.574 ± 0.186 | Intima [1, 6]: 0.010 ± 0.003 | Lumen [1, 6]: 0.013 ± 0.002 | Media [1, 6]: 0.020 ± 0.003 | TVA (total vessel area) [1, 6]: 0.044 ± 0.006 | neointimal hyperplasia in cultured porcine coronary arteries [2]: prevents neointimal hyperplasia | effect on leptin-induced proliferation of murine VSMC ([3]; Example 1, 100 ng/mL leptin, inhibitor 10 mM, 72 hr): did inhibit | VSMC proliferation induced by leptin and insulin ([3]; LY294002 compared with 100 nmol/L rapamycin alone): more pronounced effect | effect on leptin-induced VSMC proliferation [4]: inhibited | inhibition at 1.2 mg/kg/day [5]: > 80%
